{"source": "ChEMBL document CHEMBL2203217", "about": "“Prohormone-substrate peptide sequence recognition by peptidylglycine α-amidating monooxygenase and its reflection in increased glycolate inhibitor potency” (Bioorg Med Chem Lett, 2012)", "key": {"[1]": {"target": "T1, Peptidyl-glycine alpha-amidating monooxygenase (Homo sapiens, UniProt P19021)", "T1 sequence (P19021 whole entry)": "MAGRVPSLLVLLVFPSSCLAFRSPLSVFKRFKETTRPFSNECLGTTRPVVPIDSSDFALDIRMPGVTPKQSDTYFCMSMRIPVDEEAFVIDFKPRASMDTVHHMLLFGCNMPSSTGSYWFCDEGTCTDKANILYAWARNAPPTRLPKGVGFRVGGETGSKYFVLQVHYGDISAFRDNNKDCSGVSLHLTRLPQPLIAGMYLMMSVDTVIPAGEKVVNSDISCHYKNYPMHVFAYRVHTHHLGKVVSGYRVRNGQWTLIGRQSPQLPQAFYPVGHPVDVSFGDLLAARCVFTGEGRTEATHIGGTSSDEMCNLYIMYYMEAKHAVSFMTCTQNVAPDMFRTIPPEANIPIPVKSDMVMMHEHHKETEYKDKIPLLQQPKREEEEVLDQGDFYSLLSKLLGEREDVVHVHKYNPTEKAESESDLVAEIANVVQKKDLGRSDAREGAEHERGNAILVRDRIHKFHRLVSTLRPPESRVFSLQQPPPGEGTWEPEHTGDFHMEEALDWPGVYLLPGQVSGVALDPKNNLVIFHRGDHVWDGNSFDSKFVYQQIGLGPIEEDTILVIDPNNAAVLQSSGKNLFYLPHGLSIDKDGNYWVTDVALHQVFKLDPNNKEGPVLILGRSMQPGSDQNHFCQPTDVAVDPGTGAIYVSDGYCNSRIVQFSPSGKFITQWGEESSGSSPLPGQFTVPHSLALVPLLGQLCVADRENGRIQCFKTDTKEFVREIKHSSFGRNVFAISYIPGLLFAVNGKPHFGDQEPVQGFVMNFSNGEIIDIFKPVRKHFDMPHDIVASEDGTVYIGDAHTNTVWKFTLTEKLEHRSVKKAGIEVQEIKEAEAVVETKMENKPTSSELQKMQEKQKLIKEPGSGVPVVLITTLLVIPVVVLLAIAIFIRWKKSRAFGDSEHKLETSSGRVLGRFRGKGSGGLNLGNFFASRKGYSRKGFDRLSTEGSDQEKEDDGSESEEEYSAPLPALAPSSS", "experiment": "Competitive inhibition of secreted PAM in human DMS53 cell culture medium using as(R)-Tyr-(S)-Val-Gly as substrate after 2 hrs by HPLC analysis", "parameters": "species or system DMS-53"}, "[2]": {"target": "T1, Peptidyl-glycine alpha-amidating monooxygenase", "experiment": "Competitive inhibition of PAM in human DMS53 cells using as(R)-Tyr-(S)-Val-Gly as substrate after 2 hrs by HPLC analysis", "format": "cell-based, DMS-53"}}, "data": [{"smiles": "C[C@H](NC(=O)CN)C(=O)N[C@@H](Cc1ccccc1)C(=O)OCC(=O)O", "values": [{"measurement": "IC50", "setting": "[1]", "result": 160, "unit": "µM"}, {"measurement": "IC50", "setting": "[2]", "result": 560, "unit": "µM"}]}]}
